From ChEMBL document CHEMBL1201862, “PubChem BioAssay data set” (2004) come the findings set out here.

Test systems include TK-10; HL-60; OVCAR-5; SK-MEL-5; UACC-257; SN12C; SF-295; PC-3; SW-620; M14; NCI-H23; CAKI-1; OVCAR-3; MDA-N; EKVX; T47D; UACC-62; MDA-MB-435; SF-539; SNB-75.
What all share (test): NCI tumour cell line growth inhibition, 48 h

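Test compounds were applied to cells in 96-well plates for 48 hours at 5 doses. GI50 = concentration required for 50% inhibition of growth.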 Calls of active or inactive are those of the source. No stated cut-off is given here; in the data, active = GI50 up to about 1.1 µM and inactive = higher.

On to `CCn1c2ccccc2n2c(=O)c3c(c(C#N)c12)CCCC3`, for which the GI50 in the assay on TK-10, in the assay with HL-60, in the assay on OVCAR-5, with SK-MEL-5, in the assay with UACC-257 and in the assay with SN12C was > 100 µM (inactive) throughout. Besides, the GI50 in the assay with SF-295, in the assay with PC-3, with SW-620, in the assay on M14, in the assay on NCI-H23 and in the assay on CAKI-1 was > 100 µM (inactive) in each case. The GI50 with OVCAR-3, in the assay on MDA-N, with EKVX, with T47D, in the assay on UACC-62 and in the assay with MDA-MB-435 was > 100 µM (inactive) throughout. Moreover, the GI50 with SF-539 is > 100 µM (inactive).
For `CC(=O)C(=C(c1ccccc1)c1ccccc1)c1ccccc1`, the GI50 is > 100 µM (inactive) in the assay with TK-10; 20.5 µM (inactive) in the assay with HL-60; > 100 µM (inactive) in the assay on OVCAR-5; > 100 µM (inactive) in the assay with SK-MEL-5; > 100 µM (inactive) in the assay with UACC-257; > 100 µM (inactive) in the assay with SN12C. For the same molecule, the GI50 in the assay with SF-295 is > 100 µM (inactive); in the assay on PC-3, 45.2 µM (inactive); in the assay on SW-620, > 100 µM (inactive); in the assay with SNB-75 it was 87.7 µM (inactive); in the assay with M14, > 100 µM (inactive); in the assay on NCI-H23, > 100 µM (inactive). Also, the GI50 is > 100 µM (inactive) in the assay with OVCAR-3; > 100 µM (inactive) with MDA-N; 15.6 µM (inactive) with EKVX; > 100 µM (inactive) with T47D; > 100 µM (inactive) in the assay on UACC-62; > 100 µM (inactive) in the assay on MDA-MB-435. In addition, the GI50 with SF-539 was > 100 µM (inactive).
As for `O=C(O)COc1c(Cl)cc(Cl)c(C(c2c(Cl)cc(Cl)c(OCC(=O)O)c2Cl)C(Cl)(Cl)Cl)c1Cl`, the GI50 was 31.9 µM (inactive) with TK-10; 21.7 µM (inactive) in the assay with HL-60; 29.3 µM (inactive) in the assay on OVCAR-5; 18.5 µM (inactive) with SK-MEL-5; 26.2 µM (inactive) with UACC-257; 31 µM (inactive) in the assay on SN12C. For the same molecule, the GI50 in the assay with SF-295 is 25 µM (inactive); with PC-3 it was 38 µM (inactive); in the assay with SW-620, 29.8 µM (inactive); in the assay with SNB-75 it was 29.6 µM (inactive); in the assay on M14, 20.7 µM (inactive); with NCI-H23, 25.9 µM (inactive). The GI50 is 33.7 µM (inactive) in the assay on CAKI-1; > 100 µM (inactive) with MDA-N; 30.3 µM (inactive) with T47D; 18.9 µM (inactive) in the assay with UACC-62; 23 µM (inactive) in the assay with MDA-MB-435; 29.2 µM (inactive) in the assay with SF-539.
For `NNC(=O)CC(=O)Nc1cccc(Cl)c1`, the GI50 in the assay on TK-10 was > 100 µM (inactive); in the assay on HL-60, > 100 µM (inactive); in the assay on OVCAR-5, > 100 µM (inactive); with SK-MEL-5, > 100 µM (inactive); with UACC-257, 25.3 µM (inactive); with SN12C it was > 100 µM (inactive). Besides, the GI50 in the assay on SF-295, in the assay with PC-3, with SW-620, in the assay with SNB-75, with NCI-H23 and with CAKI-1 was > 100 µM (inactive) in each case. In addition, the GI50 in the assay with OVCAR-3, with MDA-N, in the assay with EKVX, in the assay on T47D, in the assay with UACC-62 and with MDA-MB-435 was > 100 µM (inactive) in each case. Moreover, in the assay with SF-539, the GI50 is > 100 µM (inactive).
With `CCOC(=O)C(=O)/C(=C/N1C(=O)CC(=O)NC1=S)C(=O)OCC`, the GI50 in the assay on HL-60, with OVCAR-5, in the assay with SK-MEL-5, with UACC-257, in the assay with SN12C and in the assay on SF-295 was > 100 µM (inactive) throughout. The GI50 was > 100 µM (inactive) with PC-3; > 100 µM (inactive) in the assay with SW-620; 10.3 µM (inactive) in the assay on SNB-75; > 100 µM (inactive) in the assay with M14; > 100 µM (inactive) in the assay with NCI-H23; > 100 µM (inactive) in the assay with CAKI-1. Further, the GI50 with OVCAR-3 was 0.719 µM (active); in the assay on MDA-N, > 100 µM (inactive); with EKVX, > 100 µM (inactive); in the assay on T47D, > 100 µM (inactive); in the assay on UACC-62, > 100 µM (inactive); in the assay on MDA-MB-435, > 100 µM (inactive). In addition, the GI50 in the assay on SF-539 was > 100 µM (inactive).
For `CCCCCC1CC=CC(=O)O1` (stereo not given), the GI50 with TK-10 is 11.6 µM (inactive); with HL-60, 4.93 µM (inactive); with OVCAR-5, 6.84 µM (inactive); in the assay with SK-MEL-5, 12.4 µM (inactive); in the assay with UACC-257, 14.1 µM (inactive); in the assay on SN12C, 6.73 µM (inactive). The GI50 with SF-295 is 11.5 µM (inactive); with PC-3, 3.78 µM (inactive); in the assay on SW-620, 4.1 µM (inactive); with M14 it was 12 µM (inactive); with NCI-H23, 5.69 µM (inactive); in the assay on CAKI-1 it was 3.72 µM (inactive). The GI50 with OVCAR-3 was 10.5 µM (inactive); in the assay on MDA-N, 6.15 µM (inactive); in the assay with EKVX it was 3.24 µM (inactive); in the assay with T47D it was 11.4 µM (inactive); in the assay with UACC-62, 11.5 µM (inactive); in the assay on MDA-MB-435 it was 5.43 µM (inactive). In the assay with SF-539, the GI50 is 1.32 µM (inactive).
Turning to `CC(=O)O[C@H]1CC[C@@]2(C)C(=CC[C@@H]3[C@@H]2CC[C@]2(C)C(=N/O)/C(=C/c4ccc([N+](=O)[O-])cc4)C[C@@H]32)C1`, the GI50 in the assay with TK-10 was 8.43 µM (inactive); in the assay on HL-60, 2.33 µM (inactive); in the assay on SK-MEL-5, 1.69 µM (inactive); in the assay on UACC-257, 0.0304 µM (active); in the assay with SN12C it was 5.5 µM (inactive); in the assay with SF-295, 3.74 µM (inactive). The GI50 with PC-3 is 2.72 µM (inactive); in the assay on SW-620, 6.24 µM (inactive); in the assay with SNB-75, 10 µM (inactive); with M14, 4.09 µM (inactive); in the assay on NCI-H23, 2.31 µM (inactive); in the assay on CAKI-1, 1.39 µM (inactive). Further, the GI50 was 2.47 µM (inactive) with OVCAR-3; 3.37 µM (inactive) in the assay with MDA-N; 0.338 µM (active) in the assay on T47D; 1.76 µM (inactive) in the assay with UACC-62; 3.32 µM (inactive) with MDA-MB-435; 29.3 µM (inactive) with SF-539.
`C=C1NC(=O)C(CC(C(=O)C(=O)Nc2c(C)cccc2C(C)(C)C)C(=O)c2ccc3ccccc3c2)C(=O)N1` (stereo not given): the GI50 with HL-60, in the assay with OVCAR-5, with SK-MEL-5, in the assay with UACC-257, with SN12C and in the assay on SF-295 was > 100 µM (inactive) each time. Moreover, the GI50 in the assay on PC-3, in the assay on SW-620, in the assay with SNB-75, in the assay with M14, in the assay on NCI-H23 and in the assay with CAKI-1 was > 100 µM (inactive) throughout. Also, the GI50 in the assay with OVCAR-3, in the assay with MDA-N, in the assay with T47D, in the assay with UACC-62, in the assay on MDA-MB-435 and in the assay on SF-539 was > 100 µM (inactive) in each case.
Regarding `COC(CN(C)C(=S)Nc1cccc2ccccc12)OC`, the GI50 in the assay on TK-10, in the assay with HL-60, with SK-MEL-5, with UACC-257, in the assay with SN12C and in the assay on SF-295 was > 10 µM (inactive) each time. Besides, the GI50 in the assay with PC-3, in the assay on SW-620, in the assay on SNB-75, in the assay with M14, in the assay on NCI-H23 and in the assay with CAKI-1 was > 10 µM (inactive) throughout. The GI50 in the assay with OVCAR-3, with MDA-N, in the assay on EKVX, with T47D, in the assay with UACC-62 and with MDA-MB-435 was > 10 µM (inactive) in each case. The GI50 with SF-539 is > 10 µM (inactive).
With `C[C@H](CCC(=O)O)[C@H]1CC[C@H]2[C@@H]3[C@@H](O)C[C@@H]4C[C@H](O)CC[C@]4(C)[C@H]3CC[C@]12C` [URSODIOL], the GI50 with TK-10, in the assay on HL-60, in the assay with OVCAR-5, with UACC-257, with SN12C and with PC-3 was > 100 µM (inactive) in each case. Besides, the GI50 in the assay on SW-620 is > 100 µM (inactive); in the assay with SNB-75, 99.1 µM (inactive); with M14, > 100 µM (inactive); with NCI-H23, > 100 µM (inactive); with CAKI-1, > 100 µM (inactive); in the assay with MDA-N it was > 100 µM (inactive). Further, the GI50 in the assay on EKVX, in the assay on T47D, with UACC-62, with MDA-MB-435 and with SF-539 was > 100 µM (inactive) in each case.
